Laboratory results as given in publication PMC9079302 (The Journal of Biological Chemistry, 2022).
“And” between values parts separate entries of the source, which are not always exact repeats. Equal values may be shown once. Read-outs that look alike come from different tables or passages of the source.

How the values were obtained:
P450 3A5 = biological target: T1, P450 3A5 (Homo sapiens, UniProt P20815); test: Type 1 spectral shift equilibrium binding to P450 3A5; conditions: for concentration dependence of type 1 spectral shift (shape of binding curve): 3A5 binding isotherm; for ΔAmax/[P450]: one-site binding (Equation 2; tiamulin Equation 3)
T1 construct: 4-histidine tag (C); made in house; host or cells: Escherichia coli
Description: The sample cuvette contained 3A5, and the corresponding buffer was in the reference cuvette. The protein buffer consisted of 50 mM sodium Hepes at pH 7.4, 50 mM potassium acetate at pH 7.4, 0.5 mM EDTA, and 20% glycerol. […] The digital spectra were sampled at 1 nm intervals for 1 s. Excel was used to subtract the initial spectrum from subsequent spectra with volume corrections for substrate addition. […] Initial values for Kds and RSRs for each complex are provided. Ligand-free P450 was assigned an RSR of zero. The output includes predicted values for Kds and RSRs, correlations between parameters, and several statistical values for goodness of fit and variances. In addition, graphs of the fit of the data to the model and residuals are produced in several formats.

3A5 [1] = system: 3A5; set-up: method as in PMID 27485383; conditions: cited from earlier work
3A5 [2] = system: 3A5; set-up: method as in PMID 17200113; conditions: type 2 shift, 1 μM P450, biphasic response; cited from earlier work
[3] = system: human microsomal testosterone turnover; set-up: method as in PMID 33137559; conditions: human microsomes; cited from earlier work
[4] = type 1 spectral shift, one-site binding (Equation 2; tiamulin tight-binding Equation 3), [P450] 0.94–2.03 μM, read-out: Kd

T1 sequence (P20815 with tags, fused parts or gaps limits assumed): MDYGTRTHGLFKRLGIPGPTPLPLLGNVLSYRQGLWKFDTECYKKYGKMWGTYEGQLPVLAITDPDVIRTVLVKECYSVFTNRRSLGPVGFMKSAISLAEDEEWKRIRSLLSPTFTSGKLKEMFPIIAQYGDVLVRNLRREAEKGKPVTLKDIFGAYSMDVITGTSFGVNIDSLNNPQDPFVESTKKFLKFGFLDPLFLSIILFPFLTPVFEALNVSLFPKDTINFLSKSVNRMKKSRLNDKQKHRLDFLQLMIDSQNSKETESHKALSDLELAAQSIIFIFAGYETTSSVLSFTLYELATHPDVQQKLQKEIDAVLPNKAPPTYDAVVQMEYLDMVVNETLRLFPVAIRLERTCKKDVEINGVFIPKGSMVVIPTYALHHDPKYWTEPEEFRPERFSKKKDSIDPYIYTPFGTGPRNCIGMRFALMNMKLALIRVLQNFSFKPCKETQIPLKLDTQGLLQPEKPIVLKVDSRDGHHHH

SMILES: C=C[C@]1(C)C[C@@H](OC(=O)CS[C@@H]2CC[C@@H](N)C[C@H]2O)[C@]2(C)[C@H](C)CC[C@]3(CCC(=O)[C@H]32)[C@@H](C)[C@@H]1O [Lefamulin]
- concentration dependence of type 1 spectral shift (shape of binding curve) (P450 3A5): hyperbolic
- ΔAmax/[P450] (P450 3A5; type 1 spectral shift): 0.06 ± 0.00
- Kd (P450 3A5; [4]): 55.1 ± 7.8 µM

SMILES: CC[C@]1(C)C[C@@H](OC(=O)CSc2n[nH]c(N)n2)[C@]2(C)[C@H](C)CC[C@]3(CCC(=O)[C@H]32)[C@@H](C)[C@@H]1O [Azamulin, (3aS,4R,5S,6R,8R,9R,9aR,10R)-6-ethyl-5-hydroxy-4,6,9,10-tetramethyl-1-oxodecahydro-3a,9-propanocyclopenta[8]annulen-8-yl [(5-amino-1H-1,2,4-triazol-3-yl)sulfanyl]acetate]
- time-dependent inhibition of 3A5 (3A5 [1]): either very slow or nonexistent
- Kd (P450 3A5; Dynafit numerical fit, model 4, [P450] 3.73–4.36 μM, 4 replicates, read-out: K1d (binary complex, two-site sequential binding model)): 0.6 µM and 0.65 µM
- Kd (P450 3A5; Dynafit numerical fit, model 4, [P450] 3.73–4.36 μM, 4 replicates, read-out: K2d (ternary complex, two-site sequential binding model)): 3.4 µM and 3.41 µM
- Kd (P450 3A5; type 1 spectral shift, sigmoidal curve, nominal 4 μM 3A5, n = 4, read-out: Kd (Hill equation fit)): 7.1 ± 0.4 µM

SMILES: C=C[C@]1(C)C[C@@H](OC(=O)CS[C@@H]2C[C@H]3CC[C@@H](C2)N3C)[C@]2(C)[C@H](C)CC[C@]3(CCC(=O)[C@H]32)[C@@H](C)[C@@H]1O [Retapamulin]
- concentration dependence of type 1 spectral shift (shape of binding curve) (P450 3A5): hyperbolic
- ΔAmax/[P450] (P450 3A5; type 1 spectral shift): 0.09 ± 0.00
- Kd (P450 3A5; [4]): 16.6 ± 2.4 µM

SMILES: CC(=O)N1CCN(c2ccc(OCC3COC(Cn4ccnc4)(c4ccc(Cl)cc4Cl)O3)cc2)CC1 (stereo not drawn) [ketoconazole]
- Hill coefficient (3A5 [2]): 1.4

SMILES: C=C[C@]1(C)C[C@@H](OC(=O)CSCCN(CC)CC)[C@]2(C)[C@H](C)CC[C@]3(CCC(=O)[C@H]32)[C@@H](C)[C@@H]1O [Tiamulin]
- IC50 [3]: 1.69 µM
- concentration dependence of type 1 spectral shift (shape of binding curve) (P450 3A5): hyperbolic
- ΔAmax/[P450] (P450 3A5; type 1 spectral shift): 0.08 ± 0.00
- Kd (P450 3A5; [4]): 6.31 ± 1.02 µM

SMILES: C=C[C@]1(C)C[C@@H](OC(=O)CO)[C@]2(C)[C@H](C)CC[C@]3(CCC(=O)[C@H]32)[C@@H](C)[C@@H]1O [Pleuromutilin]
- concentration dependence of type 1 spectral shift (shape of binding curve) (P450 3A5): hyperbolic
- ΔAmax/[P450] (P450 3A5; type 1 spectral shift): 0.12 ± 0.02
- Kd (P450 3A5; [4]): 32.7 ± 4.3 µM
